Reference: publication doi:10.1101/2020.10.13.20211417v1 (medRxiv, 2020)

Columns and labels:
Format in all cases: in vivo, human
[1] = Noncompartmental plasma pharmacokinetics of CN-105 in CATCH participants; conditions: for clearance / Vd / half-life: human, 1 mg/kg; for Vd: Vz
[2] = system: patients with acute primary supratentorial ICH; assay: Adverse events and safety endpoints, CATCH trial
[3] = system: patients with acute primary supratentorial ICH; assay: Hematoma volume from CT images
[4] = Related, Treatment Emergent Non-Serious AEs
[5] = Treatment Emergent Non-Serious AEs
[6] = non-serious TEAE events, Total, Total severity

Substance: Ac-VSRRR-NH2 [CN-105]
- Accumulation, mean (SD) ratio of AUCs ([1]; Dose 1:Dose 13, SD): 1.3 (0.4)
- CL ([1]; Maximum, N=6): 7.7 L/h
- Vz ([1]; Maximum, N=6): 56.8 L
- t1/2 ([1]; Maximum, N=6): 8.7 h
- λz,ss ([1]; Maximum, N=6): 0.3 h⁻¹
- λz,ss ([1]; Mean, N=6, SD 0.1, after last dose): 0.2 h⁻¹
- λz,ss ([1]; Median, N=6): 0.2 h⁻¹
- CL ([1]; Minimum, N=6): 4.6 L/h
- Vz ([1]; Minimum, N=6): 25.2 L
- t1/2 ([1]; Minimum, N=6): 2.3 h
- λz,ss ([1]; Minimum, N=6): 0.1 h⁻¹
- Mean (SD) maximum concentrations ([1]; dose 13, 1.0 mg/kg IV over 30 min every 6 h, plasma, LC-MS/MS, SD 1335.9): 5638.3 ng/mL
- clearance ([1]; plasma, intravenous): 122 mL/min
- Vd ([1]; plasma, intravenous, Mean, N=6, SD 12.1): 41.2 L
- Vd ([1]; plasma, intravenous, Median, N=6): 37.2 L
- half-life ([1]; plasma, intravenous, t1/2, Mean, N=6, SD 2.2, terminal phase): 270 min
- half-life ([1]; plasma, intravenous, t1/2, Median, N=6): 228 min
- clearance ([1]; plasma, iv): 113 mL/min
- participants experiencing treatment emergent SAEs ([2]; 9 of 38 participants): 24%
- participants experiencing nonfatal SAEs ([2]; 12 of 38 participants): 32%
- central nervous system (CNS) infection ([2]; 38 participants): No participants
- changes in electrocardiogram parameters ([2]; 38 participants): No participant experienced changes
- treatment emergent AE constipation, participants ([2]; 38 participants): 26%
- treatment emergent AE hypomagnesemia, participants ([2]; 38 participants): 18%
- treatment emergent AE hyponatremia, participants ([2]; 38 participants): 18%
- treatment emergent AE hypophosphatemia, participants ([2]; 38 participants): 21%
- treatment emergent AE leukocytosis, participants ([2]; 38 participants): 24%
- treatment emergent AE nausea, participants ([2]; 38 participants): 18%
- treatment emergent AE pain, participants ([2]; 38 participants): 29%
- treatment emergent AE pyrexia, participants ([2]; 38 participants): 16%
- # of Events ([2]; All Non-Serious AEs): 237
- # of Events, Mild ([2]; All Non-Serious AEs): 183
- # of Events, Moderate ([2]; All Non-Serious AEs): 51
- # of Events, Severe ([2]; All Non-Serious AEs): 3
- # of Subjects ([2]; All Non-Serious AEs): 31
- # of Subjects, Mild ([2]; All Non-Serious AEs): 30
- # of Subjects, Moderate ([2]; All Non-Serious AEs): 19
- # of Subjects, Severe ([2]; All Non-Serious AEs): 2
- participants with in-hospital neurological deterioration ([2]; Five of 38, increase of NIHSS>2 from baseline persisting more than 24 hours): 13%
- # of Events [2, 4]: 86
- # of Events, Mild [2, 4]: 73
- # of Events, Moderate [2, 4]: 13
- # of Events, Severe [2, 4]: 0
- # of Subjects [2, 4]: 16
- # of Subjects, Mild [2, 4]: 16
- # of Subjects, Moderate [2, 4]: 5
- # of Subjects, Severe [2, 4]: 0
- participants who died prior to 30-day follow up ([2]; Three of 38, in-hospital, related to primary disease): 8%
- # of Events [2, 5]: 230
- # of Events, Mild [2, 5]: 177
- # of Events, Moderate [2, 5]: 50
- # of Events, Severe [2, 5]: 3
- # of Subjects [2, 5]: 30
- # of Subjects, Mild [2, 5]: 29
- # of Subjects, Moderate [2, 5]: 19
- # of Subjects, Severe [2, 5]: 2
- participants receiving treatment for elevated intracranial pressure ([2]; Two of 38, both died in-hospital of brain herniation from index ICH): 5%
- SAE Drug administration error (Medication administration error), Relatedness ([2]; all SAEs, subject 101-003, Moderate, day 2-2, Recovered / Resolved): Unrelated
- SAE Pneumonia (Left upper lobe pneumonia), Relatedness ([2]; all SAEs, subject 101-004, Moderate, day 1-8, Recovered / Resolved): Related
- SAE Failure to thrive, Relatedness ([2]; all SAEs, subject 101-004, Moderate, day 23-57, Recovered / Resolved): Unrelated
- SAE Cerebral haemorrhage (Left Frontal IPH), Relatedness ([2]; all SAEs, subject 101-004, Severe, day 58-62, Recovered / Resolved): Related
- SAE Brain herniation (Cerebral herniation), Relatedness ([2]; all SAEs, subject 101-007, Severe, day 0-5, Fatal): Unrelated
- SAE Respiratory failure (Hypoxic Respiratory Failure), Relatedness ([2]; all SAEs, subject 101-008, Moderate, day 2-4, Recovered / Resolved): Related
- SAE Urinary tract infection, Relatedness ([2]; all SAEs, subject 101-013, Moderate, day 39-44, Recovered / Resolved): Unrelated
- SAE Pulmonary embolism, Relatedness ([2]; all SAEs, subject 101-015, Severe, day 22-32, Recovered / Resolved): Unrelated
- SAE Cerebral haemorrhage (Worsening of Intracerebral Hemorrhage), Relatedness ([2]; all SAEs, subject 101-018, Severe, day 0-6, Fatal): Unrelated
- SAE Dural arteriovenous fistula, Relatedness ([2]; all SAEs, subject 102-002, Moderate, day 1-1, Recovered / Resolved): Unrelated
- SAE Deep vein thrombosis (Left Popliteal Vein), Relatedness ([2]; all SAEs, subject 102-010, Severe, day 75-83, Recovered / Resolved): Unrelated
- SAE Respiratory distress, Relatedness ([2]; all SAEs, subject 103-001, Moderate, day 1-35, Recovered / Resolved): Unrelated
- SAE Brain herniation, Relatedness ([2]; all SAEs, subject 104-001, Severe, day 0-4, Fatal): Unrelated
- SAE Partial seizures (Focal Seizure), Relatedness ([2]; all SAEs, subject 106-002, Severe, day 8-18, Recovered / Resolved): Unrelated
- treatment emergent SAEs, number of events ([2]; deemed unlikely related to study drug): Eleven
- Grand Total ([2]; non-serious TEAE events, Total severity): 230 (100) N (%)
- Acute kidney injury [2, 6]: 4 (1.7) N (%)
- Agitation [2, 6]: 5 (2.2) N (%)
- Alcohol withdrawal syndrome [2, 6]: 1 (0.4) N (%)
- Anemia [2, 6]: 5 (2.2) N (%)
- Anxiety [2, 6]: 1 (0.4) N (%)
- Atelectasis [2, 6]: 1 (0.4) N (%)
- Atrial fibrillation [2, 6]: 1 (0.4) N (%)
- Azotemia [2, 6]: 1 (0.4) N (%)
- Bacteremia [2, 6]: 1 (0.4) N (%)
- Benign prostatic hyperplasia [2, 6]: 1 (0.4) N (%)
- Bladder catheterization [2, 6]: 1 (0.4) N (%)
- Blood phosphorus decreased [2, 6]: 1 (0.4) N (%)
- Bradycardia [2, 6]: 2 (0.9) N (%)
- Brain edema [2, 6]: 2 (0.9) N (%)
- Candida infection [2, 6]: 1 (0.4) N (%)
- Chest pain [2, 6]: 2 (0.9) N (%)
- Cognitive disorder [2, 6]: 1 (0.4) N (%)
- Confusional state [2, 6]: 1 (0.4) N (%)
- Constipation [2, 6]: 11 (4.8) N (%)
- Cough [2, 6]: 1 (0.4) N (%)
- Decubitus ulcer [2, 6]: 1 (0.4) N (%)
- Deep vein thrombosis [2, 6]: 1 (0.4) N (%)
- Dehydration [2, 6]: 1 (0.4) N (%)
- Delirium [2, 6]: 5 (2.2) N (%)
- Depressed mood [2, 6]: 3 (1.3) N (%)
- Depression [2, 6]: 1 (0.4) N (%)
- Diarrhea [2, 6]: 2 (0.9) N (%)
- Dysphagia [2, 6]: 3 (1.3) N (%)
- Dyspnea [2, 6]: 3 (1.3) N (%)
- Edema [2, 6]: 2 (0.9) N (%)
- Endotracheal intubation [2, 6]: 1 (0.4) N (%)
- Eustachian tube dysfunction [2, 6]: 1 (0.4) N (%)
- Exophthalmos [2, 6]: 1 (0.4) N (%)
- Fall [2, 6]: 5 (2.2) N (%)
- Flatulence [2, 6]: 2 (0.9) N (%)
- Gastrointestinal hemorrhage [2, 6]: 1 (0.4) N (%)
- Headache [2, 6]: 4 (1.7) N (%)
- Helicobacter infection [2, 6]: 1 (0.4) N (%)
- Hematocrit decreased [2, 6]: 1 (0.4) N (%)
- Hydrocephalus [2, 6]: 3 (1.3) N (%)
- Hyperchloremia [2, 6]: 2 (0.9) N (%)
- Hyperglycemia [2, 6]: 5 (2.2) N (%)
- Hyperlipidemia [2, 6]: 2 (0.9) N (%)
- Hypermagnesemia [2, 6]: 2 (0.9) N (%)
- Hypernatremia [2, 6]: 1 (0.4) N (%)
- Hypocalcemia [2, 6]: 5 (2.2) N (%)
- Hypoglycemia [2, 6]: 1 (0.4) N (%)
- Hypokalemia [2, 6]: 4 (1.7) N (%)
- Hypomagnesemia [2, 6]: 7 (3) N (%)
- Hyponatremia [2, 6]: 7 (3) N (%)
- Hypophosphatemia [2, 6]: 9 (3.9) N (%)
- Hypotension [2, 6]: 2 (0.9) N (%)
- Impulsive behaviour [2, 6]: 2 (0.9) N (%)
- Intracranial pressure increased [2, 6]: 2 (0.9) N (%)
- Lactic acidosis [2, 6]: 2 (0.9) N (%)
- Leukocytosis [2, 6]: 9 (3.9) N (%)
- Medical observation [2, 6]: 1 (0.4) N (%)
- Muscle spasticity [2, 6]: 1 (0.4) N (%)
- Musculoskeletal pain [2, 6]: 1 (0.4) N (%)
- Nasal congestion [2, 6]: 3 (1.3) N (%)
- Nausea [2, 6]: 7 (3) N (%)
- Neuralgia [2, 6]: 2 (0.9) N (%)
- Neurological decompensation [2, 6]: 1 (0.4) N (%)
- Pain [2, 6]: 12 (5.2) N (%)
- Partial seizures [2, 6]: 1 (0.4) N (%)
- Patella fracture [2, 6]: 1 (0.4) N (%)
- Pneumocephalus [2, 6]: 1 (0.4) N (%)
- Pneumonia [2, 6]: 4 (1.7) N (%)
- Pneumonia aspiration [2, 6]: 1 (0.4) N (%)
- Pneumothorax [2, 6]: 2 (0.9) N (%)
- Procedural pain [2, 6]: 1 (0.4) N (%)
- Pulmonary congestion [2, 6]: 1 (0.4) N (%)
- Pulmonary embolism [2, 6]: 1 (0.4) N (%)
- Pyrexia [2, 6]: 6 (2.6) N (%)
- Reflux gastritis [2, 6]: 1 (0.4) N (%)
- Respiratory failure [2, 6]: 1 (0.4) N (%)
- Scleral oedema [2, 6]: 1 (0.4) N (%)
- Scrotal irritation [2, 6]: 1 (0.4) N (%)
- Seizure [2, 6]: 2 (0.9) N (%)
- Sepsis [2, 6]: 1 (0.4) N (%)
- Sleep apnea syndrome [2, 6]: 1 (0.4) N (%)
- Somnolence [2, 6]: 1 (0.4) N (%)
- Staphylococcal infection [2, 6]: 1 (0.4) N (%)
- Subarachnoid haemorrhage [2, 6]: 2 (0.9) N (%)
- Tachycardia [2, 6]: 2 (0.9) N (%)
- Tachypnea [2, 6]: 3 (1.3) N (%)
- Thrombocytopenia [2, 6]: 3 (1.3) N (%)
- Thrombocytosis [2, 6]: 1 (0.4) N (%)
- Thrombosis [2, 6]: 1 (0.4) N (%)
- Tremor [2, 6]: 1 (0.4) N (%)
- Troponin increased [2, 6]: 1 (0.4) N (%)
- Urinary incontinence [2, 6]: 1 (0.4) N (%)
- Urinary retention [2, 6]: 4 (1.7) N (%)
- Urinary tract infection [2, 6]: 4 (1.7) N (%)
- Vomiting [2, 6]: 2 (0.9) N (%)
- Treatment emergent SAE Pneumonia (Left upper lobe pneumonia), Relatedness ([2]; subject 101-004, Moderate, day 1-8, Recovered / Resolved): Related
- Treatment emergent SAE Failure to thrive, Relatedness ([2]; subject 101-004, Moderate, day 23-57, Recovered / Resolved): Unrelated
- Treatment emergent SAE Cerebral haemorrhage (Left Frontal IPH), Relatedness ([2]; subject 101-004, Severe, day 58-62, Recovered / Resolved): Related
- Treatment emergent SAE Urinary tract infection, Relatedness ([2]; subject 101-013, Moderate, day 39-44, Recovered / Resolved): Unrelated
- Treatment emergent SAE Pulmonary embolism, Relatedness ([2]; subject 101-015, Severe, day 22-32, Recovered / Resolved): Unrelated
- Treatment emergent SAE Dural arteriovenous fistula, Relatedness ([2]; subject 102-002, Moderate, day 1-1, Recovered / Resolved): Unrelated
- Treatment emergent SAE Deep vein thrombosis (Left Popliteal Vein), Relatedness ([2]; subject 102-010, Severe, day 75-83, Recovered / Resolved): Unrelated
- Treatment emergent SAE Respiratory distress, Relatedness ([2]; subject 103-001, Moderate, day 1-35, Recovered / Resolved): Unrelated
- Treatment emergent SAE Partial seizures (Focal Seizure), Relatedness ([2]; subject 106-002, Severe, day 8-18, Recovered / Resolved): Unrelated
- Mean (SD) hematoma volume by CT ([3]; Day 1 after ICH): 25.1 (25.1) cm^3
- Mean (SD) hematoma volume by CT ([3]; Day 2 after ICH): 21.9 (24.9) cm^3
- Mean (SD) hematoma volume by CT ([3]; Day 5 after ICH): 19.7 (19.6) cm^3
- hematoma volumes versus 1:1 matched ERICH participants ([3]; Days 0, 1, 2, 5, box plots, descriptive): No difference
- participants with incidence of hemorrhage extension ([3]; Nine of 38, one with clinical deterioration): 24%
- Mean (SD) hematoma volume by CT ([3]; on admission): 22.8 (23.7) cm^3
